Measured values from ChEMBL document CHEMBL1765080, “Synthesis, biological evaluation and molecular modeling of novel triazole-containing berberine derivatives as acetylcholinesterase and β-amyloid aggregation inhibitors” (Bioorg Med Chem, 2011).
pIC50: −log10 of the molar value.

Assays:
Acetylcholinesterase = Acetylcholinesterase (Electrophorus electricus, UniProt O42275); test: Inhibition of electric eel Acetylcholinesterase
Butyrylcholinesterase = Butyrylcholinesterase (Equus caballus, UniProt Q9N1N9); test: Inhibition of equine serum Butyrylcholinesterase
[1] = Ratio of IC50 for equine serum Butyrylcholinesterase to IC50 for electric eel Acetylcholinesterase
[2] = Inhibition of amyloid-beta (1 to 42) aggregation at 20 uM after 48 hrs by fluorescence analysis using thioflavin T

Sequence of Acetylcholinesterase (O42275 whole entry): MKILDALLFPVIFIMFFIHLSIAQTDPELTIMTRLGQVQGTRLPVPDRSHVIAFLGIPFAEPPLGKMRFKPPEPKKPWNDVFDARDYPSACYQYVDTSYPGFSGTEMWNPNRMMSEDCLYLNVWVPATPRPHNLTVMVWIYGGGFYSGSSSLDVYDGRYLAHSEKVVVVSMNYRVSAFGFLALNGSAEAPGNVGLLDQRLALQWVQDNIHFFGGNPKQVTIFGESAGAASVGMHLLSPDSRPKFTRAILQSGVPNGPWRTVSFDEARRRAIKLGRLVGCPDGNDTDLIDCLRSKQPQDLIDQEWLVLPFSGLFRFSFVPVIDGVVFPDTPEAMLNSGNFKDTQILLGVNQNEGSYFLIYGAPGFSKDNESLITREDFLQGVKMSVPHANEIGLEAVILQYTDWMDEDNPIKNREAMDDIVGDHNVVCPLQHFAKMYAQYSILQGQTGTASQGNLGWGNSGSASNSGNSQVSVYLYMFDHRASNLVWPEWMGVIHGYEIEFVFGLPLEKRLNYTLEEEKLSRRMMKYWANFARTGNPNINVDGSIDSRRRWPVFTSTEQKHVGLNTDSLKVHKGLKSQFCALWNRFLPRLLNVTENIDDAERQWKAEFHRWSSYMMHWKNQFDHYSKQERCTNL
Sequence of Butyrylcholinesterase (Q9N1N9 whole entry): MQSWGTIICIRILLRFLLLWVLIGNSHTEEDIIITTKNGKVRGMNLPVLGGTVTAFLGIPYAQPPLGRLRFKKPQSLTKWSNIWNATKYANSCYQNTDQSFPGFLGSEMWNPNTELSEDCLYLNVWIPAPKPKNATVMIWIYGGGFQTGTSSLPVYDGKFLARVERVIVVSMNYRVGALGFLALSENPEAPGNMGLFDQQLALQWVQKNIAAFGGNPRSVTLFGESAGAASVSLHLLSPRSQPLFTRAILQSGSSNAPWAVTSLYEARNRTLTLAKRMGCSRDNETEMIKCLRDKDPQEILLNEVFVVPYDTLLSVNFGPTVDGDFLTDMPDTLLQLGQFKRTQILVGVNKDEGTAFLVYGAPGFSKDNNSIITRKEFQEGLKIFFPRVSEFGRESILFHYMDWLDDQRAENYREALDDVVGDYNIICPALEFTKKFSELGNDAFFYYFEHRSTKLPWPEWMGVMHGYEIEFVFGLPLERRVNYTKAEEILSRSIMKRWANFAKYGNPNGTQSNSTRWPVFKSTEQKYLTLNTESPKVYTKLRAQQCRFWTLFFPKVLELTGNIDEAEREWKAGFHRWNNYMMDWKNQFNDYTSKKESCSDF

SMILES | pIC50 (Acetylcholinesterase) | pIC50 (Butyrylcholinesterase) | Ratio IC50 [1] | inhibition [2]
COc1ccc2cc3[n+](cc2c1OCCCn1cc(-c2ccccc2)nn1)CCc1cc2c(cc1-3)OCO2 | 6.51 | 5.66 | 7.13 | 
CCCCN(CCCC)c1cn(CCCOc2c(OC)ccc3cc4[n+](cc23)CCc2cc3c(cc2-4)OCO3)nn1 | 6.61 | 5.69 | 8.48 | 
CCCN(CCC)c1cn(CCCOc2c(OC)ccc3cc4[n+](cc23)CCc2cc3c(cc2-4)OCO3)nn1 | 6.85 | 5.80 | 11.3 | 
CCCCN(CCCC)c1cn(CCCCOc2c(OC)ccc3cc4[n+](cc23)CCc2cc3c(cc2-4)OCO3)nn1 | 6.33 | 5.26 | 11.6 | 71.7%
COc1ccc2cc3[n+](cc2c1OCCCCn1cc(-c2ccccc2)nn1)CCc1cc2c(cc1-3)OCO2 | 5.88 | 5.82 | 1.14 | 60.6%
CCCCc1cn(CCCOc2c(OC)ccc3cc4[n+](cc23)CCc2cc3c(cc2-4)OCO3)nn1 | 6.78 | 5.39 | 24.6 | 
CCCN(CCC)c1cn(CCCCOc2c(OC)ccc3cc4[n+](cc23)CCc2cc3c(cc2-4)OCO3)nn1 | 6.57 | 5.32 | 17.7 | 62.5%
COc1ccc2cc3[n+](cc2c1OC)CCc1cc2c(cc1-3)OCO2 |  |  |  | 36.3%
CCCCc1cn(CCCCOc2c(OC)ccc3cc4[n+](cc23)CCc2cc3c(cc2-4)OCO3)nn1 | 6.70 | 5.69 | 10 | 77.9%
